Source: patent US10238624B2, “Composition for activating longevity genes, containing kojic acid derivative as active ingredient” (AMOREPACIFIC CORPORATION, priority 2015, dated 2019)

Experiments:
Type in all cases: cell-based
ERCC8 mRNA [1] = assay: Relative expression of ERCC8 mRNA in keratinocytes (TaqMan RT-PCR); details: normal human keratinocytes, 10 ppm, 37° C., 24 hours; control = 1.0
Procedure: (§1) In order to investigate the effect of the kojic acid derivative according to the present disclosure on the activation of longevity genes, the effect of kojyl methylenedioxycinnamate on the activation of Sirt-1, Klotho, XPD and ERCC8 was compared with that of retinol using normal human keratinocytes (NHKs) and normal human fibroblasts (NHFs).
(§2) Specifically, after treating the keratinocytes (NHKs) and fibroblasts (NHFs) with kojyl methylenedioxycinnamate or retinol at 10 ppm and incubating them at 37° C. for 24 hours, the relative expression of Sirt-1, Klotho, XPD and ERCC8 mRNAs was compared by isolating the total RNAs from the cells. The NHFs were purchased from Lonza (Allendale, N.J., USA) and incubated at 37° C. for 24 hours using DMEM after transferring 2×10^5 cells onto a 60-mm dish. After discarding the medium, the cells were transferred to a fresh tissue culture flask. […]
(§3) The total RNAs were isolated using TRIzol™ (Invitrogen, Carlsbad, Calif., USA) according to the manufacturer's instructions. RNA concentration was measured spectrophotometrically and RNA integrity was measured using BioAnalyzer 2100 (Agilent Technologies, Santa Clara, Calif., USA). […] Target gene expression level was measured by quantitative real-time TaqMan RT-PCR (7500Fast, Applied Biosystems, Foster City, Calif., USA). […]

Klotho mRNA [2] = assay: Relative expression of Klotho mRNA in keratinocytes (TaqMan RT-PCR); details: normal human keratinocytes, 10 ppm, 37° C., 24 hours; control = 1.0
Procedure: as §1, §2, §3

XPD mRNA [3] = assay: Relative expression of XPD mRNA in keratinocytes (TaqMan RT-PCR); details: normal human keratinocytes, 10 ppm, 37° C., 24 hours; control = 1.0
Procedure: as §1, §2, §3

ERCC8 mRNA [4] = assay: Relative expression of ERCC8 mRNA in fibroblasts (TaqMan RT-PCR); details: normal human fibroblasts, 10 ppm, 37° C., 24 hours; control = 1.0
Procedure: as §1, §2, §3

Sirt-1 mRNA [5] = assay: Relative expression of Sirt-1 mRNA in keratinocytes (TaqMan RT-PCR); details: normal human keratinocytes, 10 ppm, 37° C., 24 hours; control = 1.0
Procedure: as §1, §2, §3

Klotho mRNA [6] = assay: Relative expression of Klotho mRNA in fibroblasts (TaqMan RT-PCR); details: normal human fibroblasts, 10 ppm, 37° C., 24 hours; control = 1.0
Procedure: as §1, §2, §3

FoxO3a = FoxO3a activation by nuclear translocation rate in human MNT1 melanoma cells (DAPI/anti-FoxO3a confocal microscopy); details: 48 hours; for nuclear translocation rate: control 13.2%
Procedure: In order to investigate the effect of the kojic acid derivative according to the present disclosure on the activation of longevity genes, the effect of the kojyl methylenedioxycinnamate seletinoid G on the activation of the FoxO3a gene was investigated by measuring nuclear translocation rate using human MNT1 melanoma cells purchased from Lonza.
The degree of FoxO3a activation was evaluated based on violet fluorescence resulting from the overlapping of red and blue fluorescence. • Primary antibody: anti-FoxO3a (1:200), 4° C., overnight. • Secondary antibody: Alexa Fluor 555-conjugated goat (1:5000), room temperature, 1 hour.

Sirt-1 mRNA [7] = assay: Relative expression of Sirt-1 mRNA in fibroblasts (TaqMan RT-PCR); details: normal human fibroblasts, 10 ppm, 37° C., 24 hours; control = 1.0
Procedure: as §1, §2, §3

XPD mRNA [8] = assay: Relative expression of XPD mRNA in fibroblasts (TaqMan RT-PCR); details: normal human fibroblasts, 10 ppm, 37° C., 24 hours; control = 1.0
Procedure: as §1, §2, §3

SMILES	relative expression of ERCC8 mRNA (ERCC8 mRNA [1])	relative expression of Klotho mRNA (Klotho mRNA [2])	relative expression of XPD mRNA (XPD mRNA [3])	relative expression of ERCC8 mRNA (ERCC8 mRNA [4])	relative expression of Sirt-1 mRNA (Sirt-1 mRNA [5])	relative expression of Klotho mRNA (Klotho mRNA [6])	activation of the longevity gene FoxO3a (in words) (FoxO3a; 15-450 ppm)	nuclear translocation rate (FoxO3a; 15 ppm) [%]	nuclear translocation rate (FoxO3a; 150 ppm) [%]	nuclear translocation rate (FoxO3a; 450 ppm) [%]	relative expression of Sirt-1 mRNA (Sirt-1 mRNA [7])	relative expression of XPD mRNA (XPD mRNA [8])
O=C(/C=C/c1ccc2c(c1)OCO2)OCc1cc(=O)c(O)co1 [Kojyl methylenedioxycinnamate, kojyl methylenedioxycinnamate]	1.9	9.1	8.5	1.4	5.2	2.5	remarkably activates	35.7	86.3	66.9	2.4	3.5
CC1=C(/C=C/C(C)=C/C=C/C(C)=C/CO)C(C)(C)CCC1 [Retinol, retinol, reference compound]	1.5	8.9	8.2	1.3	4.6	2.2	–	–	–	–	2.5	2.5
